ChEMBL document CHEMBL1152068, “A study of 3-amino-N-hydroxypropanesulfonamide derivatives as potential GABAB agonists and their fragmentation to 3-aminopropanesulfinic acid” (Bioorg Med Chem Lett, 1996)

System: Cavia porcellus
Experiment: Inhibitory effect on bronchospasm caused by vagal nerve stimulation (EFS) in anesthetized, mechanically ventilated guinea-pigs at 3 mg/kg after 10 minutes
Type: functional
Conditions: Bronchiole; call rule not given here

Compound | inhibition in vivo at 3 mg/kg [%]
NCCCS(=O)(=O)NO | 0
NCCCS(=O)(=O)N(O)Cc1ccccc1 | 17
CN(O)S(=O)(=O)CCCN | 17
NCC(CC(=O)O)c1ccc(Cl)cc1 (racemic) [BACLOFEN] | 75
NCCCS(=O)O [HOMOHYPOTAURINE] | 25

System: GABA-A receptor; anion channel
Experiment: Binding affinity against Gamma-aminobutyric acid A receptor in rat brain synaptosomes after 30 minutes (inactive)
Type: subcellular
Conditions: not given

Compound | IC50
NCC(CC(=O)O)c1ccc(Cl)cc1 (racemic) [BACLOFEN] | Not Active

Species on record: Cavia porcellus
Experiment: Compound was tested for its effect on EFS stimulated neuronal cholinergic contractions of guinea pig tracheal rings after 10 minutes
Type: functional
Conditions: Trachea

Compound | IC50 [µM]
NCCCS(=O)(=O)NO | 16
NCCCS(=O)(=O)N(O)Cc1ccccc1 | 4.2
CN(O)S(=O)(=O)CCCN | 2.6
NCC(CC(=O)O)c1ccc(Cl)cc1 (racemic) [BACLOFEN] | 6.4
NCCCS(=O)O [HOMOHYPOTAURINE] | 1.7

Biological target: GABA-A receptor; anion channel
Experiment: Binding affinity against Gamma-aminobutyric acid A receptor in rat brain synaptosomes after 30 minutes
Type: subcellular
Conditions: not given

Compound | IC50 [nM]
NCCCS(=O)(=O)N(O)CC(=O)O | 620
NCCCS(=O)(=O)NO | 2000
NCCCS(=O)(=O)N(O)Cc1ccccc1 | 230
CN(O)S(=O)(=O)CCCN | 280
NCCCS(=O)O [HOMOHYPOTAURINE] | 470
NCCCS(=O)(=O)O [TRAMIPROSATE] | 300

Biological target: GABA B receptor (Rattus norvegicus, UniProt O88871+Q9Z0U4)
Experiment: Binding affinity against Gamma-aminobutyric acid type B receptor in rat brain synaptosomes after 30 minutes
Type: subcellular
Conditions: not given

Sequence of GABA B receptor (Q9Z0U4 whole entry): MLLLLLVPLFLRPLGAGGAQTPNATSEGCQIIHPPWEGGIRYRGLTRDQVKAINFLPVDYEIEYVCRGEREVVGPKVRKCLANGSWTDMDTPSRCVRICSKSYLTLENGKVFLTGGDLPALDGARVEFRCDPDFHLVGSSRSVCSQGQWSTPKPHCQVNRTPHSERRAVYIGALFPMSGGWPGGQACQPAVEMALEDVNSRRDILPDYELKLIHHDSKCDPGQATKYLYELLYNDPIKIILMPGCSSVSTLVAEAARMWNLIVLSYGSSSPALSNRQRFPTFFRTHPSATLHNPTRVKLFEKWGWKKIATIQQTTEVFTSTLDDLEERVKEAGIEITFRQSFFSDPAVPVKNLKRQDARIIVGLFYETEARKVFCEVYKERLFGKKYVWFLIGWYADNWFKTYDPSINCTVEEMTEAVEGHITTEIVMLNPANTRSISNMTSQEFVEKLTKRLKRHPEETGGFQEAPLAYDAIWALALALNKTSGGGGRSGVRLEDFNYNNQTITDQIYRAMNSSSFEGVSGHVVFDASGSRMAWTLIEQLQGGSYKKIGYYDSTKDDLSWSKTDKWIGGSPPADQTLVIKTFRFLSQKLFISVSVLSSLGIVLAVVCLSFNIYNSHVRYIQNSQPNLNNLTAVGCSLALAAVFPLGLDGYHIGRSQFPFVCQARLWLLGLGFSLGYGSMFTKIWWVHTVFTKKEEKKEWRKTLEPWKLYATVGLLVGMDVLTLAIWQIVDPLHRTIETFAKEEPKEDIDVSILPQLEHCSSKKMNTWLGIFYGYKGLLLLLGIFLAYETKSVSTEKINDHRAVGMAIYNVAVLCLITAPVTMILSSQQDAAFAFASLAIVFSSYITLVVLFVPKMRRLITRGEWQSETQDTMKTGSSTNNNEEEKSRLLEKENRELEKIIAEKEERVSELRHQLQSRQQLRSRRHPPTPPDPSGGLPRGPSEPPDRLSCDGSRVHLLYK
Sequence of GABA B receptor (O88871 whole entry): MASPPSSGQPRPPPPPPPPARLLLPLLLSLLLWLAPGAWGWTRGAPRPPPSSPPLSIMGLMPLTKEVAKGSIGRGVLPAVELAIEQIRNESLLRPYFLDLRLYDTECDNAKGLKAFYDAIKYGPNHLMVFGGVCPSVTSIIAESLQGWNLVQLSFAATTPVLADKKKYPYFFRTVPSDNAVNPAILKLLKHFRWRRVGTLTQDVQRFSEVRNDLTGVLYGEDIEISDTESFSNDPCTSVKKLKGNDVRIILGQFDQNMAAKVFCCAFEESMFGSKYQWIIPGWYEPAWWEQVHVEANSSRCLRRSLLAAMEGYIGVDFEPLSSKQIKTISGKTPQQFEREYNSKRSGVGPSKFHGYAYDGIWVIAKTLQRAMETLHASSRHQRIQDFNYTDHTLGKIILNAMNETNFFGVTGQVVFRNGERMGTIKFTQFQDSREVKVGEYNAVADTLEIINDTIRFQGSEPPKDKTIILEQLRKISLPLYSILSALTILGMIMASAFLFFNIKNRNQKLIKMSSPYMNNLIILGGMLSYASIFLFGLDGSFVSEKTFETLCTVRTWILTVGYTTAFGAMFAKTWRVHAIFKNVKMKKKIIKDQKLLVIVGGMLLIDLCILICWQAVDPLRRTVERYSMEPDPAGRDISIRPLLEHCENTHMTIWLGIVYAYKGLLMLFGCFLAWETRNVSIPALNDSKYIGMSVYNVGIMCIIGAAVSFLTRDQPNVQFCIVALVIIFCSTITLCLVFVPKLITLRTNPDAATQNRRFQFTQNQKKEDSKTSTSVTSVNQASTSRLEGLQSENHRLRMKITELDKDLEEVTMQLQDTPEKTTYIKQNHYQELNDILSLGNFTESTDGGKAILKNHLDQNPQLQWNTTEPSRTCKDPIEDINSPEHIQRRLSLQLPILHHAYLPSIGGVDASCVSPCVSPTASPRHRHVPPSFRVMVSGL

Compound | IC50 [nM]
NCCCS(=O)(=O)N(O)CC(=O)O | 80
NCCCS(=O)(=O)NO | 280
NCCCS(=O)(=O)N(O)Cc1ccccc1 | 40
CN(O)S(=O)(=O)CCCN | 40
NCCCS(=O)O [HOMOHYPOTAURINE] | 60
NCCCS(=O)(=O)O [TRAMIPROSATE] | 30000
